Data: patent publication US5955471A, “Tetrahydroisoquinolinealkanol derivatives and pharmaceutical compositions containing same” (SK Corporation, priority 1998, dated 1999)

Key:
[1] = Behavior Despair (Forced Swimming) test in mice (ip); type: in vivo; details: 30 mg/kg (ip), 15-minute test period, vs control vehicle
Protocol: (§1) Behavior Despair (Forced Swimming) test, a well known pharmacological screening method for depression, was conducted similary to the test described by Porsolt, R. D., Bertin, A and Jalfre, M.: Behavior despair in mice: A preliminary screening test for antidepressants. Arch. Int. Pharmacodyn. Ther. 229: 327-336, 1977.
Mice were dosed intraperitoneally (ip) with either test compound or vehicle. One hour later each animal was placed in a 1500 mL glass beaker containing water at room temperature. Mice were kept in the water for a period of 15 minutes and the duration of immobility observed within the 15-minute test period was recorded. A mouse was judged to be immobile if it floated motionlessly in the water making only those movements necessary to keep its head above the water. For calculation of percent (%) reduction in immobility time, the difference in immobility time for control vehicle versus the drug is divided by the immobility time of the control vehicle and multiplied by 100.

[2] = tested on: 5-HT-mediated head-twitch response; assay: Head-Twitch Test (5-HTP-induced head-twitch response in mice); type: in vivo; details: oral, vs control vehicle
Protocol: The head-twitch response of mice is initiated by a variety of 5-HT mimetic drugs. The test was conducted in a manner similar to the procedure described by Heal, D. J., Philpot, J, O'Shaughnessy, K. M. and Davies, C. L.: The influence of central noradrenergic function on 5-HT-mediated head-twitch responses in mice: Possible implications for the actions of antidepressant drugs. Psychopharmacology 89: 414-420, 1986,
The head-twitch consisted of a characteristic rotation of the head, neck and shoulders of the mice. The test drug or vehicle was given by oral gavage. Thirty minutes later all animals were pretreated with carbidopa (25 mg/kg ip). Fifteen minutes following carbidopa administration, the mice were injected with 100 mg/kg ip of L-5-hydroxytryptophan (5-HTP). The animals were then left for 30 minutes before measurement of the head-twitch response in the following 2-minute period. For calculation of percent (%) response increase, the difference in drug head twitch number versus the control vehicle head twitch number is divided by the control head twitch and multiplied by 100.

MAO-A = MAO-A inhibiting activity in vitro, rat liver mitochondrial membranes; type: biochemical; details: 10 uM; 300 nM deprenyl to block MAO-B; 60 minutes preincubation, 37° C., pH 7.2; [14C] Serotonin
Protocol: The MAO-A activities in vitro were measured using Rat liver mitochondrial membranes as the source of the enzyme, according to a modified method of S. Otsuka & Y. Kobayashi: A Radioisotopic Assay for Monoamine Oxidase Determinations in Human Plasma. Biochem. Pharmacol. 13: 995-1006 (1964)
Rat liver mitochondrial membranes are preincubated with drug or vehicle, and subtype selective blocker (300 nM deprenyl to block the B type of MAO) for 60 minutes at 37° C. in 100 mM KPO4 (pH 7.2). [^14 C] Serotonin ([…]) is then added and incubated for 10 minutes. The reaction is stopped by the addition of 0.5 ml of 2M citric acid. Radioactive product is extracted into a toluene/ethyl acetate fluor and compared to control values by scintillation spectrophotometry in order to ascertain any interactions of test compounds with MAO-A.

[3] = Behavior Despair (Forced Swimming) test in rats (po); type: in vivo; details: 60 mg/kg (po), 4-minute test period, vs control vehicle
Protocol: as §1
Rats were pre-swam for 10 minutes the day before the test in 4000 mL glass cylinders containing water at 25° C. On the following day, rats were dosed orally (po) with either test compound or vehicle. One hour later each animal was placed in a glass cylinder and, following a 2-minute pretest, immobility was recorded for a 4-minute test period. For calculation of percent (%) reduction in immobility time, the difference in immobility time for control vehicle versus the drug is divided by the immobility time of the control vehicle and multiplied by 100.

CNC(=S)OC[C@@H]1Cc2ccccc2CN1 [Example 16, (S)-3-(N-Methylthiocarbamoyloxymethyl)-1,2,3,4-tetrahydroisoquinoline]
% Reduction (immobility time) [1]: 56%

CN1Cc2ccccc2C[C@H]1COC(N)=O [Example 8, (S)-3-Carbamoyloxymethyl-N-methyl-1,2,3,4-tetrahydroisoquinoline]
% Response Increase ([2]; 1 mg/kg): 77%

CNC(=S)OC[C@@H]1Cc2ccccc2CN1C [Example 18]
% Reduction (immobility time) [1]: 33%

NC(=O)OC[C@@H]1Cc2ccccc2CN1 [Example 5, (S)-3-Carbamoyloxymethyl-1,2,3,4-tetrahydroisoquinoline]
% Response Increase ([2]; 3 mg/kg): 144%

NC(=O)OC[C@H]1Cc2ccccc2CN1 [Example 4, (R)-3-Carbamoyloxymethyl-1,2,3,4-tetrahydroisoquinoline]
% Response Increase ([2]; 15 mg/kg): 258% | % Inhibition (MAO-A) (MAO-A): 63.9%

CNC(=S)OC[C@@H]1Cc2ccccc2CN1C(=O)Nc1ccccc1 [Example 17, (S)-3-(N-Methyl-thiocarbamoyloxymethyl)-N-(anilinocarbonyl)-1,2,3,4-tetrahydroisoquinoline]
% Reduction (immobility time) [1]: 46%

NC(=O)OC[C@@H]1Cc2ccccc2CN1 [Example 3, (S)-3-Carbamoyloxymethyl-1,2,3,4-tetrahydroisoquinoline]
% Response Increase ([2]; 1 mg/kg): 238% | % Reduction (immobility time) [3]: 83% | % Inhibition (MAO-A) (MAO-A): 97.7%

NC(=S)OCC1Cc2ccccc2CN1 (centres unmarked) [Example 14, 3-Thiocarbamoyloxymethyl-1,2,3,4-tetrahydroisoquinoline]
% Response Increase ([2]; 8 mg/kg): 42%
